# Measured values from PubChem BioAssay (NCI).
# Values joined by “and” are separate entries in the source; they are usually repeats but may differ in a detail not shown here. Equal entries are not always repeated.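 Five compound concentrations were applied to cells in 96-well plates for 48 hours; endpoints were derived by simple linear interpolation of the resulting dose-response curve. GI50 = concentration required for 50% inhibition of growth. At the TGI there is no net growth.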
# What was measured:
# Assay in all cases: growth of human tumour cells (NCI), 48 h
# A498 renal = test system: A498 renal
# BT-549 breast = test system: BT-549 breast
# COLO 205 colon = test system: COLO 205 colon
# HOP-92 NSCLC = test system: HOP-92 NSCLC
# HT29 colon = test system: HT29 colon
# LOX IMVI melanoma = test system: LOX IMVI melanoma
# NCI-H522 lung = test system: NCI-H522 lung
# OVCAR-5 ovarian = test system: OVCAR-5 ovarian
# SF-539 CNS = test system: SF-539 CNS
# SK-MEL-28 melanoma = test system: SK-MEL-28 melanoma
SMILES,GI50 (A498 renal),TGI (A498 renal),GI50 (BT-549 breast),TGI (BT-549 breast),GI50 (COLO 205 colon),TGI (COLO 205 colon),GI50 (HOP-92 NSCLC),TGI (HOP-92 NSCLC),GI50 (HT29 colon),TGI (HT29 colon),GI50 (LOX IMVI melanoma),TGI (LOX IMVI melanoma),GI50 (NCI-H522 lung),TGI (NCI-H522 lung),GI50 (OVCAR-5 ovarian),TGI (OVCAR-5 ovarian),GI50 (SF-539 CNS),TGI (SF-539 CNS),GI50 (SK-MEL-28 melanoma),TGI (SK-MEL-28 melanoma)
CC1(C)CC[C@]2(C(=O)O)CC[C@]3(C)C(=CC[C@@H]4[C@@]5(C)C/C(=C/c6cccnc6)[C@H](O)C(C)(C)[C@@H]5CC[C@]43C)[C@@H]2C1,> 100 µM,> 100 µM,12.4 µM,> 100 µM,9.71 µM,29.6 µM,2.22 µM,10.1 µM,8.78 µM,42.1 µM,8.28 µM,24.2 µM,8.97 µM,> 100 µM,11.2 µM,44 µM,5.54 µM,24 µM,11.1 µM,35 µM
CC[C@@]12CC(C(=O)OC)=C3Nc4ccccc4[C@@]34CCN(C[C@H]3O[C@H]31)[C@@H]24,27.5 µM,> 100 µM,43.5 µM,> 100 µM,34.4 µM,> 100 µM,17.7 µM,> 100 µM,29.2 µM,> 100 µM,34.8 µM,> 100 µM,20.9 µM,> 100 µM,> 100 µM,> 100 µM,61.2 µM,> 100 µM,86.2 µM,> 100 µM
O=C(/C=C/c1ccccc1)c1ccccn1,,29.6 µM and 37.6 µM,,37.4 µM and 52.4 µM,,32.9 µM and 45.7 µM,,53 µM,,28.9 µM and 48.3 µM,,23.9 µM and 34.8 µM,,48.2 µM and 33.2 µM,11.5 µM and 24.2 µM,29 µM and > 100 µM,,42.4 µM,,40.7 µM and 81.5 µM
Nc1nc(N)c2nc(CNc3ccc(C(=O)NC(CCC(=O)O)C(=O)O)cc3)cnc2n1 (stereo unspecified),0.062 µM and 0.0488 µM,> 100 µM,0.399 µM and 0.213 µM,> 100 µM,,> 100 µM,> 100 µM,> 100 µM,< 0.01 µM,> 100 µM,< 0.01 µM,> 100 µM,0.0446 µM and 0.0815 µM,> 100 µM,0.0373 µM and 0.0307 µM,> 100 µM,0.0204 µM and < 0.01 µM,> 100 µM,0.941 µM,> 100 µM
Nc1nc(-c2ccccn2)c(-c2ccc3ncccc3n2)s1,> 25 µM,> 25 µM,> 25 µM,> 25 µM,> 25 µM,> 25 µM,13.3 µM,> 25 µM,> 25 µM,> 25 µM,> 25 µM,> 25 µM,> 25 µM,> 25 µM,> 25 µM,> 25 µM,> 25 µM,> 25 µM,> 25 µM,> 25 µM
CCc1ccc2cc3c(ccc4ccccc43)c3c2c1CC3,> 100 µM,> 100 µM,> 100 µM,> 100 µM,> 100 µM,> 100 µM,> 100 µM,> 100 µM,> 100 µM,> 100 µM,> 100 µM,> 100 µM,> 100 µM,> 100 µM,> 100 µM,> 100 µM,> 100 µM,> 100 µM,> 100 µM,> 100 µM
FC(F)(F)c1ccc(-c2cnc(-c3nn[nH]n3)nc2NC2CCCCCC2)cc1,> 10 µM,> 10 µM,> 10 µM,> 10 µM,> 10 µM,> 10 µM,> 10 µM,> 10 µM,> 10 µM,> 10 µM,> 10 µM,> 10 µM,> 10 µM,> 10 µM,> 10 µM,> 10 µM,> 10 µM,> 10 µM,> 10 µM,> 10 µM
CCCCCCCCCCCCNC(=O)N[C@H](C(=O)N[C@H]1/C=C/OCCNC(=O)/C=C/[C@H](C(C)C)NC1=O)C(C)C,7.81 µM,57 µM,2.19 µM,33.6 µM,20 µM,> 57.4 µM,5.14 µM,58.7 µM,0.599 µM,65.4 µM,9.4 µM,36.4 µM,0.372 µM,5.2 µM,6.82 µM,> 92.7 µM,2.49 µM,18.4 µM,3.28 µM,26.2 µM
CN1CC[C@H](N(C)C(=O)N2CC(c3cc(F)ccc3F)=C[C@@]2(CO)c2ccccc2)[C@H](F)C1,0.0211 µM,24.8 µM,0.0421 µM,37.7 µM,,3.77 µM,0.143 µM,79.7 µM,0.0411 µM,> 100 µM,0.0415 µM,> 100 µM,0.00871 µM,,0.0669 µM and 0.0212 µM,> 100 µM,0.00498 µM,,,28.3 µM
COc1ccc(-c2cc(-c3ccc(Cl)cc3)c(C#N)c(=O)n2CCCCCC(=O)Nc2ccccc2N)cc1,1.37 µM,19.2 µM,4.49 µM,43.7 µM,3.15 µM,33.2 µM,1.96 µM,9.93 µM,3.56 µM,> 100 µM,1.64 µM,3.45 µM,4.43 µM,> 100 µM,10.9 µM,> 100 µM,9.29 µM,> 100 µM,3.88 µM,97.8 µM
O=C(CNC(=O)c1cccc2ccccc12)Nc1ccccc1Oc1ccc(O)cc1,1.01 µM,9.97 µM,1.63 µM,> 25 µM,0.796 µM,3.56 µM,> 25 µM,> 25 µM,0.992 µM,> 25 µM,1.72 µM,> 25 µM,0.852 µM,> 25 µM,6.3 µM,> 25 µM,0.688 µM,2.45 µM,> 25 µM,> 25 µM
COc1cc2nc(NC3CCC3)nc(NC3CCN(C(C)C)CC3)c2cc1OC,1.24 µM,7.05 µM,1.71 µM,3.7 µM,1.88 µM,3.81 µM,1.46 µM,3.64 µM,1.75 µM,3.97 µM,1.72 µM,3.23 µM,1.96 µM,4.52 µM,4.01 µM,19.1 µM,1.81 µM,3.36 µM,1.94 µM,3.66 µM
